Measured values published in patent publication US8895585B2, “Nicotinamide derivative or salt thereof” (FUJIFILM Corporation, priority 2010, dated 2014).

Legend:
[1] = target: T1, glutathione S-transferase (GST)-fused full-length human Syk protein (Homo sapiens, UniProt P43405); experiment: Syk enzyme assay; type: biochemical; conditions: Syk enzyme assay, Test Example 1; read-out: IC50 of Syk-inhibitory activity
T1 construct: (GST)-fused full-length human Syk protein; GST (glutathione S-transferase); purchased Carna Biosciences
Outline: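 GST-tagged full-length human Syk (baculovirus) preincubated with compound 15 min at room temperature (pH 7.0, 10 mM MgCl2), then reacted 40 min with 0.4 μM biotinylated peptide substrate and 27 μM ATP (final). Phosphorylation read by HTRF (615/665 nm) after EDTA stop; IC50 reported.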

THP-1 cells = experiment: TNFα generation assay; type: cell-based, human; conditions: Homo sapiens, THP-1, THP-1 cells; Table 22; read-out: IC50 in TNFα generation assay
Outline: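 THP-1 cells differentiated to macrophage-like cells with 10 ng/ml IFN-γ for 2 days, preincubated with compound 30 min at room temperature, then cultured 7 h on plates coated with human IgG (10 μg/ml). Secreted TNFα measured by ELISA or AlphaLISA.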

| SMILES | IC50 [1] | IC50 (THP-1 cells) |
| --- | --- | --- |
| COc1ccc(-c2cncc(Nc3nc(N[C@@H]4CCCC[C@@H]4N)c(F)cc3C(N)=O)c2)c(OC)c1 (relative stereo) [Example 004-190, 6-(cis-2-aminocyclohexylamino)-2-((5-(2,4-dimethoxyphenyl)pyridin-3-yl)amino)-5-fluoronicotinamide] | < 10 nM | 130 to 200 nM |
| COCc1cc(Nc2nc(N[C@@H]3CCCC[C@@H]3N)c(F)cc2C(N)=O)ccn1 (relative stereo) [Example 004-191, 6-(cis-2-aminocyclohexylamino)-5-fluoro-2-((2-(methoxymethyl)pyridin-4-yl)amino)nicotinamide] | 10 to 50 nM | 65 to 130 nM |
| COc1cccc(-c2cncc(Nc3nc(N[C@@H]4CCCC[C@@H]4N)c(F)cc3C(N)=O)c2)c1F (relative stereo) [Example 004-197, 6-(cis-2-aminocyclohexylamino)-5-fluoro-2-((5-(2-fluoro-3-methoxyphenyl)pyridin-3-yl)amino)nicotinamide] | < 10 nM | 65 to 130 nM |
| COc1ccc(-c2cncc(Nc3nc(N[C@@H]4CCCC[C@@H]4N)c(F)cc3C(N)=O)c2)c(F)c1 (relative stereo) [Example 004-198, 6-(cis-2-aminocyclohexylamino)-5-fluoro-2-((5-(2-fluoro-4-methoxyphenyl)pyridin-3-yl)amino)nicotinamide] | < 10 nM | 65 to 130 nM |
| COc1ccc(F)c(-c2cncc(Nc3nc(N[C@@H]4CCCC[C@@H]4N)c(F)cc3C(N)=O)c2)c1 (relative stereo) [Example 004-199, 6-(cis-2-aminocyclohexylamino)-5-fluoro-2-((5-(2-fluoro-5-methoxyphenyl)pyridin-3-yl)amino)nicotinamide] | < 10 nM | 130 to 200 nM |
| NC(=O)c1cc(F)c(N[C@@H]2CCCC[C@@H]2N)nc1Nc1ccc2nc(OCCN3CCOC3=O)ccc2c1 (relative stereo) [Example 004-201, 6-(cis-2-aminocyclohexylamino)-5-fluoro-2-((2-(2-(2-oxooxazolidin-3-yl)ethoxy)quinolin-6-yl)amino)nicotinamide] | < 10 nM | 130 to 200 nM |
| NC(=O)c1cc(F)c(N[C@@H]2CCCC[C@@H]2N)nc1Nc1cncc(-c2ncccn2)c1 (relative stereo) [Example 004-214, 6-(cis-2-aminocyclohexylamino)-5-fluoro-2-((5-(pyrimidin-2-yl)pyridin-3-yl)amino)nicotinamide] | 10 to 50 nM | 130 to 200 nM |
| NC(=O)c1cc(F)c(N[C@@H]2CCCC[C@@H]2N)nc1Nc1cncc(-c2cccc([N+](=O)[O-])c2)c1 (relative stereo) [Example 004-215, 6-(cis-2-aminocyclohexylamino)-5-fluoro-2-((5-(3-nitrophenyl)pyridin-3-yl)amino)nicotinamide] | < 10 nM | 65 to 130 nM |
| NC(=O)c1cc(F)c(N[C@@H]2CCCC[C@@H]2N)nc1Nc1cncc(-c2cccc(N)c2)c1 (relative stereo) [Example 004-217, 6-(cis-2-aminocyclohexylamino)-2-((5-(3-aminophenyl)pyridin-3-yl)amino)-5-fluoronicotinamide] | < 10 nM | 65 to 130 nM |
| NC(=O)c1cc(F)c(N[C@@H]2CCCC[C@@H]2N)nc1Nc1cncc(-c2ccc(N)cc2)c1 (relative stereo) [Example 004-218, 6-(cis-2-aminocyclohexylamino)-2-((5-(4-aminophenyl)pyridin-3-yl)amino)-5-fluoronicotinamide] | < 10 nM | 65 to 130 nM |
| CNc1cccc(-c2cncc(Nc3nc(N[C@@H]4CCCC[C@@H]4N)c(F)cc3C(N)=O)c2)c1 (relative stereo) [Example 004-219, 6-(cis-2-aminocyclohexylamino)-5-fluoro-2-((5-(3-(methylamino)phenyl)pyridin-3-yl)amino)nicotinamide] | < 10 nM | 65 to 130 nM |
| CNc1ccc(-c2cncc(Nc3nc(N[C@@H]4CCCC[C@@H]4N)c(F)cc3C(N)=O)c2)cc1 (relative stereo) [Example 004-220, 6-(cis-2-aminocyclohexylamino)-5-fluoro-2-((5-(4-(methylamino)phenyl)pyridin-3-yl)amino)nicotinamide] | < 10 nM | 65 to 130 nM |
| NC(=O)c1cc(F)c(N[C@@H]2CCCC[C@@H]2N)nc1Nc1cncc(-c2ccc(N3CCOCC3)cc2)c1 (relative stereo) [Example 004-222, 6-(cis-2-aminocyclohexylamino)-5-fluoro-2-((5-(4-morpholinophenyl)pyridin-3-yl)amino)nicotinamide] | < 10 nM | 130 to 200 nM |
| NC(=O)c1cc(F)c(N[C@@H]2CCCC[C@@H]2N)nc1Nc1cncc(-c2ccc(N3CCCC3=O)cc2)c1 (relative stereo) [Example 004-226, 6-(cis-2-aminocyclohexylamino)-5-fluoro-2-((5-(4-(2-oxopyrrolidin-1-yl)phenyl)pyridin-3-yl)amino)nicotinamide] | < 10 nM | 130 to 200 nM |
| CN(C)c1cccc(-c2cncc(Nc3nc(N[C@@H]4CCCC[C@@H]4N)c(F)cc3C(N)=O)c2)c1 (relative stereo) [Example 004-227, 6-(cis-2-aminocyclohexylamino)-2-((5-(3-(dimethylamino)phenyl)pyridin-3-yl)amino)-5-fluoronicotinamide] | < 10 nM | 130 to 200 nM |
| NC(=O)c1cc(F)c(N[C@@H]2CCCC[C@@H]2N)nc1Nc1cncc(-c2nnco2)c1 (relative stereo) [Example 004-229, 2-((5-(1,3,4-oxadiazol-2-yl)pyridin-3-yl)amino)-6-((cis-2-aminocyclohexyl)amino)-5-fluoronicotinamide] | < 10 nM | 65 to 130 nM |
| NC(=O)c1cc(F)c(N[C@@H]2CCCC[C@@H]2N)nc1Nc1ccc2ncncc2c1 (relative stereo) [Example 006-062, 6-(cis-2-aminocyclohexylamino)-5-fluoro-2-(quinazolin-6-ylamino)nicotinamide] | < 10 nM | < 65 nM |
| NC(=O)c1cc(F)c(N[C@@H]2CCCC[C@@H]2N)nc1Nc1cncc(-c2cc[nH]c2)c1 (relative stereo) [Example 006-116, 2-((5-(1H-pyrrol-3-yl)pyridin-3-yl)amino)-6-((cis-2-aminocyclohexyl)amino)-5-fluoronicotinamide] | < 10 nM | 130 to 200 nM |
| NC(=O)c1cc(F)c(N[C@@H]2CCCC[C@@H]2N)nc1Nc1cccc(-n2ccnn2)c1 (relative stereo) [Example 006-122, 2-(3-(1H-1,2,3-triazol-1-yl)phenylamino)-6-((cis-2-aminocyclohexyl)amino)-5-fluoronicotinamide] | < 10 nM | 65 to 130 nM |
| NC(=O)c1cc(F)c(N[C@@H]2CCCC[C@@H]2N)nc1Nc1cncc(-n2cccc2)c1 (relative stereo) [Example 006-123, 2-((5-(1H-pyrrol-1-yl)pyridin-3-yl)amino)-6-(cis-2-aminocyclohexylamino)-5-fluoronicotinamide] | < 10 nM | 130 to 200 nM |
| NC(=O)c1cc(F)c(N[C@@H]2CCCC[C@@H]2N)nc1Nc1ccnc(-n2cccc2)c1 (relative stereo) [Example 006-124, 2-((2-(1H-pyrrol-1-yl)pyridin-4-yl)amino)-6-((cis-2-aminocyclohexyl)amino)-5-fluoronicotinamide] | < 10 nM | 130 to 200 nM |
| NC(=O)c1cc(F)c(N[C@@H]2CCCC[C@@H]2N)nc1Nc1ccnc(-n2nccn2)c1 (relative stereo) [Example 006-125, 2-((2-(2H-1,2,3-triazol-2-yl)pyridin-4-yl)amino)-6-((cis-2-aminocyclohexyl)amino)-5-fluoronicotinamide] | < 10 nM | 65 to 130 nM |
| NC(=O)c1cc(F)c(N[C@@H]2CCCC[C@@H]2N)nc1Nc1ccnc(-n2ccnn2)c1 (relative stereo) [Example 006-126, 2-((2-(1H-1,2,3-triazol-1-yl)pyridin-4-yl)amino)-6-((cis-2-aminocyclohexyl)amino)-5-fluoronicotinamide] | < 10 nM | < 65 nM |
| NC(=O)c1cc(F)c(N[C@@H]2CCCC[C@@H]2N)nc1Nc1ccnc(-n2ccnc2)c1 (relative stereo) [Example 006-128, 2-((2-(1-imidazol-1-yl)pyridin-4-yl)amino)-6-((cis-2-aminocyclohexyl)amino)-5-fluoronicotinamide] | 10 to 50 nM | 130 to 200 nM |
| NC(=O)c1cc(F)c(N[C@@H]2CCCC[C@@H]2N)nc1Nc1cncc(-n2cccn2)c1 (relative stereo) [Example 006-129, 2-((5-(1H-pyrazol-1-yl)pyridin-3-yl)amino)-6-((cis-2-aminocyclohexyl)amino)-5-fluoronicotinamide] | < 10 nM | < 65 nM |
| NC(=O)c1cc(F)c(N[C@@H]2CCCC[C@@H]2N)nc1Nc1ccnc(-n2cccn2)c1 (relative stereo) [Example 006-130, 2-((2-(1H-pyrazol-1-yl)pyridin-4-yl)amino)-6-((cis-2-aminocyclohexyl)amino)-5-fluoronicotinamide] | 10 to 50 nM | 65 to 130 nM |
| NC(=O)c1cc(F)c(N[C@@H]2CCCC[C@@H]2N)nc1Nc1ccnc(Cl)c1 (relative stereo) [Example 006-163, 6-((cis-2-aminocyclohexyl)amino)-2-((2-chloropyridin-4-yl)amino)-5-fluoronicotinamide] | < 10 nM | 65 to 130 nM |
